# ChEMBL document CHEMBL1123869, “N,N-dialkylated leucine enkephalins as potential delta opioid receptor antagonists” (1987)
# Peptide text beside a SMILES is read from it. * marks the point of attachment. Tyr(Nα,Nα-Bn2) = O=C([C@H](Cc1ccc(O)cc1)N(Cc1ccccc1)Cc1ccccc1)*; Tyr(Nα,Nα-allyl2) = C=CCN(CC=C)[C@@H](Cc1ccc(O)cc1)C(=O)*; X4 = O=C([C@H](Cc1ccc(O)cc1)N(CCc1ccccc1)CCc1ccccc1)*; X5 = CCCCCCCCN(CCCCCCCC)[C@@H](Cc1ccc(O)cc1)C(=O)*; X3 = O=C([C@H](Cc1ccc(O)cc1)N(CC1CC1)CC1CC1)*; X1 = CCCCCN(CCCCC)[C@@H](Cc1ccc(O)cc1)C(=O)*; X2 = CCCN(CCC)[C@@H](Cc1ccc(O)cc1)C(=O)*
# Key:
# Cavia porcellus = species: Cavia porcellus; assay: Agonistic activity was measured on the electrically stimulated longitudinal muscle of the guinea pig ileum (GPI) at 1 uM concentration; settings: Muscle tissue
# Mus musculus = species: Mus musculus; assay: Agonistic activity was measured on the electrically stimulated longitudinal muscle of the mouse vas deferens (MVD) at 1 uM concentration; settings: Muscle tissue
Compound,inhibition at 1 µM (Cavia porcellus),inhibition at 1 µM (Mus musculus)
CCCCCN(CCCCC)[C@@H](Cc1ccc(O)cc1)C(=O)NCC(=O)NCC(=O)N[C@@H](Cc1ccccc1)C(=O)N[C@@H](CC(C)C)C(=O)O (X1-GGFL-OH),15.9%,20.4%
CCCN(CCC)[C@@H](Cc1ccc(O)cc1)C(=O)NCC(=O)NCC(=O)N[C@@H](Cc1ccccc1)C(=O)N[C@@H](CC(C)C)C(=O)O (X2-GGFL-OH),-2.6%,11.9%
CC(C)C[C@H](NC(=O)[C@H](Cc1ccccc1)NC(=O)CNC(=O)CNC(=O)[C@H](Cc1ccc(O)cc1)N(CC1CC1)CC1CC1)C(=O)O (X3-GGFL-OH),2.2%,27.3%
CC(C)C[C@H](NC(=O)[C@H](Cc1ccccc1)NC(=O)CNC(=O)CNC(=O)[C@H](Cc1ccc(O)cc1)N(CCc1ccccc1)CCc1ccccc1)C(=O)O (X4-GGFL-OH),14.7%,60.5%
CCCCCCCCN(CCCCCCCC)[C@@H](Cc1ccc(O)cc1)C(=O)NCC(=O)NCC(=O)N[C@@H](Cc1ccccc1)C(=O)N[C@@H](CC(C)C)C(=O)O (X5-GGFL-OH),8.1%,39.2%
"CC(C)C[C@H](NC(=O)[C@H](Cc1ccccc1)NC(=O)CNC(=O)CNC(=O)[C@H](Cc1ccc(O)cc1)N(Cc1ccccc1)Cc1ccccc1)C(=O)O ({Tyr(Nα,Nα-Bn2)}-GGFL-OH)",1.9%,11.4%
"C=CCN(CC=C)[C@@H](Cc1ccc(O)cc1)C(=O)NCC(=O)NCC(=O)N[C@@H](Cc1ccccc1)C(=O)N[C@@H](CC(C)C)C(=O)O ({Tyr(Nα,Nα-allyl2)}-GGFL-OH)",-6.7%,10%
